Reference: patent US20250206718A1, “NITROGEN-CONTAINING HETEROCYCLIC DERIVATIVE INHIBITOR, PREPARATION METHOD THEREFOR AND USE THEREOF” (SHANGHAI HANSOH BIOMEDICAL CO., LTD., priority 2022, published 2025)

What was measured:
[1] = biological target: Ba/F3 EGFR Del19/T790M/C797S cells (Homo sapiens, UniProt P00533, T790M/C797S, cells depend on it, form not given); assay: Cell proliferation inhibition (Cell Titer-Glo), Ba/F3 EGFR Del19/T790M/C797S; assay type: cell-based, mouse; details: 72 hours, CellTiter-Glo, read-out: Ba/F3 EGFR Del19_T790M_C797S IC50
Description: (§1) Experimental objective: The objective of this test example is to test the inhibitory activity of compounds on the proliferation of different EGFR C797S drug-resistant mutant cell lines Ba/F3 EGFR Del19/T790M/C797S, Ba/F3 EGFR L858R/T790M/C797S, and Ba/F3 EGFR Del19/C797S.
(§2) • Ba/F3 EGFR Del19/T790M/C797S cells were purchased from KYinno Biotechnology Co., Ltd.; • Ba/F3 EGFR Del19/C797S cells were purchased from CoBioer Biosciences Co., Ltd.; • Ba/F3 EGFR L858R/T790M/C797S cells were purchased from CoBioer Biosciences Co., Ltd.; • Cell Titer-Glo was purchased from Promega, with a catalog number of G7573; • RPMI 1640 was purchased from Gibco, with a catalog number of 22400089; • FBS was purchased from Gibco, with a catalog number of 10091148; • cell culture plates were purchased from Corning, with a catalog number of 3610.
(§3) The inhibitory activity of the compound on the proliferation of different EGFR C797S drug-resistant mutant cell lines was detected using the Cell Titer-Glo method. The different cell lines were cultured in RPMI 1640 complete culture medium containing 10% FBS under conditions of 37° C. and 5% CO2, the cells were collected by centrifugation when growing to a certain density, and adjusted to appropriate cell density after counting, the cells were spread on a white 96-well plate at 90 μL/well, and cultured in a 37° C., 5% CO2 incubator overnight, prepared compound solutions of different concentrations were added at 10 μL/well, corresponding solvent controls were set, and all wells were cultured in a 37° C., 5% CO2 incubator for 72 hours, 50 μL of CellTiter-Glo solution was added to each well, shook and mixed evenly, and incubated in the dark for 10 minutes, and a BioTek Synergy H1 microplate reader was used for reading.
(§4) The luminescence signal value was used to calculate the inhibition rate. Graphpad Prism software was used to fit the concentration and inhibition rate to a nonlinear regression curve, so as to obtain the IC50 value, as shown in the Table below for details.

[2] = biological target: Ba/F3 EGFR Del19/C797S cells (Homo sapiens, UniProt P00533, C797S, cells depend on it, form not given); assay: Cell proliferation inhibition (Cell Titer-Glo), Ba/F3 EGFR Del19/C797S; assay type: cell-based, mouse; details: 72 hours, CellTiter-Glo, read-out: Ba/F3 EGFR Del19/C797S IC50
Description: as §1, §2, §3, §4

[3] = biological target: Ba/F3 EGFR L858R/T790M/C797S cells (Homo sapiens, UniProt P00533, T790M/C797S/L858R, cells depend on it); assay: Cell proliferation inhibition (Cell Titer-Glo), Ba/F3 EGFR L858R/T790M/C797S; assay type: cell-based, mouse; details: 72 hours, CellTiter-Glo, read-out: Ba/F3 EGFR L858R_T790M_C797S IC50
Description: as §1, §2, §3, §4

[4] = Rat pharmacokinetic evaluation test; assay type: in vivo; details: Sprague-Dawley (SD), po, SD rats, male, p.o. 5 mg/kg, plasma
Procedure: SD rats were used as test animals to study the pharmacokinetic behavior of the compounds of the present invention in the rat body (plasma) after oral administration at a dose of 5 mg/kg.
2.2 Experimental Animals: 3 SD Rats/Group, Male, from Shanghai Jiesijie Experimental Animal Co., Ltd., Animal Production License Number (SCXK (Shanghai) 2013-0006 No. 311620400001794).
• Oral administration drug preparation: 20% solutol HS15 in 0.5% MC (methylcellulose)
20 g of a Solutol HS15 solid and 0.5 g of a MC solid powder were weighed and dissolved in 80 mL of purified water, and the mixture was vortexed, mixed until uniform, and subjected to ultrasound treatment to obtain a clear solution of 20% solutol HS15 in 0.5% MC.
The example compound was weighed into a 20 mL glass bottle, the solution was added thereto and the mixture was subjected to ultrasound treatment for 10 minutes to obtain a clear solution with a concentration of 0.5 mg/mL.
3 male SD rats were administered p.o. respectively after the 3 male SD rats were fasted overnight; the p.o. dose was 5 mg/kg and the administration volume was 10 mL/kg.
Blood collection: Before and after administration to rats, 0.2 mL of blood was collected from the jugular vein at 0.25, 0.5, 1, 2, 4, 6, 8 and 24 h, and placed in an EDTA-K2 anticoagulation tube, which was centrifuged at 6000 rpm at 4° C. for 6 min to separate plasma which was stored at −80° C.; the rats were fed 4 h after administration.
1) 160 μL of acetonitrile was added to 40 μL of plasma sample for precipitation, mixed and centrifuged at 3500×g for 5 to 20 min.
2) the treated supernatant solution was taken and subjected to LC/MS/MS to analyze the concentrations of the test compounds. LC/MS/MS analysis instrument: AB Sciex API 4000 Qtrap.
• Liquid phase conditions: Shimadzu LC-20AD pump • Chromatographic column: Agilent ZORBAX XDB-C18 (50×2.1 mm, 3.5 μm) mobile phase: liquid A is 0.1% aqueous formic acid solution, liquid B is acetonitrile • Flow rate: 0.4 mL/min • Elution time: 0-4.0 min, the eluent is as follows:
The main pharmacokinetic parameters were calculated using WinNonlin 6.1.

Ba/F3 EGFR Del19/C797S cells, sequence (P00533 with tags, fused parts or gaps DEL746-750/C797S, form open): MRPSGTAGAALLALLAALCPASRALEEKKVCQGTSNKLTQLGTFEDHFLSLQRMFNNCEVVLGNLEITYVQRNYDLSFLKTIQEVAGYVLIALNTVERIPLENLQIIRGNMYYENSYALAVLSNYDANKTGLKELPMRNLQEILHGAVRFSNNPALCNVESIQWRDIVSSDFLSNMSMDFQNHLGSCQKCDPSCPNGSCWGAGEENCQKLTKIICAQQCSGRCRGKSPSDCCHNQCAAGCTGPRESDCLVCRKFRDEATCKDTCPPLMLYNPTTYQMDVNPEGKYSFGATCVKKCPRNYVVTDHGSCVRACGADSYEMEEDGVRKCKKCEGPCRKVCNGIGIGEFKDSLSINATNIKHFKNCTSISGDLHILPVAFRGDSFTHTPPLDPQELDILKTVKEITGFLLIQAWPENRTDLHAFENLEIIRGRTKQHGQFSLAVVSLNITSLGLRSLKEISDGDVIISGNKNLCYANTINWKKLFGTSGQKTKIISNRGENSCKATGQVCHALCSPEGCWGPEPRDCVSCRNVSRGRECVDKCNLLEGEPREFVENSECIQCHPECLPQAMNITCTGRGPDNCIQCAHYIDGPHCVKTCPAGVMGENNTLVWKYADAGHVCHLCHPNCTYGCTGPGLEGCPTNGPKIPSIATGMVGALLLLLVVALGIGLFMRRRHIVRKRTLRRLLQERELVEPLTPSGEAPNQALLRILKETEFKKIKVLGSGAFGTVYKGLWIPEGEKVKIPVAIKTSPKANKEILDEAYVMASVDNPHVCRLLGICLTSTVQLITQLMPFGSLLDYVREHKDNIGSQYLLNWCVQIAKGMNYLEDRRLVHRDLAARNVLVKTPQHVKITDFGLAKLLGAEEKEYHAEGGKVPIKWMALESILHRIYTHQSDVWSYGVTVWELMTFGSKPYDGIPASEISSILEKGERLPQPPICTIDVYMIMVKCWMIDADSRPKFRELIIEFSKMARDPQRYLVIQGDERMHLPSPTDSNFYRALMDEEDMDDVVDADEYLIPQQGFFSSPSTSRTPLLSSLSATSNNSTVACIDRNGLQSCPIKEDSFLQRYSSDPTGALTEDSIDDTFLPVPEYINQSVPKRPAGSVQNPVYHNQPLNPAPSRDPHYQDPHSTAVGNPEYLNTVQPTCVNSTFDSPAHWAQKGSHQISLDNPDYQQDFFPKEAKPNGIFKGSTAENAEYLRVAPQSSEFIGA
Ba/F3 EGFR Del19/T790M/C797S cells, sequence (P00533 with tags, fused parts or gaps DEL746-750/T790M/C797S, form open): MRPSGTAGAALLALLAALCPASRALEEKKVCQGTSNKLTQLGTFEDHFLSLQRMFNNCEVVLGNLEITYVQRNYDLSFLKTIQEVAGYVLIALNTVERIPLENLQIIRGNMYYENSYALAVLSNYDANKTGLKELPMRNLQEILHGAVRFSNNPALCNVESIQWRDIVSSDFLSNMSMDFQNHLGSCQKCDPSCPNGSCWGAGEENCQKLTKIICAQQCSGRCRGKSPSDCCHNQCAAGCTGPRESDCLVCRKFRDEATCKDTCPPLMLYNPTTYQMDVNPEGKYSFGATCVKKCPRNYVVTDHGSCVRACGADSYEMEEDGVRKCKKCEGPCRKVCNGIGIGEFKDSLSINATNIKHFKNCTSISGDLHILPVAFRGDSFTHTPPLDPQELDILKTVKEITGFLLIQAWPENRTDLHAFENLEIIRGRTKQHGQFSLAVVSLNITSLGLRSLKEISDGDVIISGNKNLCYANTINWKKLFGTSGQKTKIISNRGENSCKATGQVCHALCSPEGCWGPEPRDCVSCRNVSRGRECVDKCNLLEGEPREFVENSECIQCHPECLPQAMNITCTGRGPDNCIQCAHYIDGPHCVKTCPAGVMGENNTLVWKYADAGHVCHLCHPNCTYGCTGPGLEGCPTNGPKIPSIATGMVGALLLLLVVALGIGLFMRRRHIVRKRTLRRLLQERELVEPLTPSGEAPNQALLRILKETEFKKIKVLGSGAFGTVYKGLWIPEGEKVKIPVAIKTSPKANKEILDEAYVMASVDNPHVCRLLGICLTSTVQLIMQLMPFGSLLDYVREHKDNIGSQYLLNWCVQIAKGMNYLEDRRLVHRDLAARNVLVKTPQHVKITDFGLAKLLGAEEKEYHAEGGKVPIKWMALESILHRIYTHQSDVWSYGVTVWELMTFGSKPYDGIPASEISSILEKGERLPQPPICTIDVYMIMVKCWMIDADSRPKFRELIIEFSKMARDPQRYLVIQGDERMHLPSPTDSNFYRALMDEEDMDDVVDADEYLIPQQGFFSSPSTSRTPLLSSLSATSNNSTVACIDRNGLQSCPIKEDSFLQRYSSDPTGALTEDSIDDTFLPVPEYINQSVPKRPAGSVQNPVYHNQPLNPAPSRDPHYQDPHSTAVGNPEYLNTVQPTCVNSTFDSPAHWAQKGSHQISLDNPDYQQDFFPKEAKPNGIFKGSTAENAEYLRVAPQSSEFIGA
Ba/F3 EGFR L858R/T790M/C797S cells, sequence (P00533 whole entry T790M/C797S/L858R): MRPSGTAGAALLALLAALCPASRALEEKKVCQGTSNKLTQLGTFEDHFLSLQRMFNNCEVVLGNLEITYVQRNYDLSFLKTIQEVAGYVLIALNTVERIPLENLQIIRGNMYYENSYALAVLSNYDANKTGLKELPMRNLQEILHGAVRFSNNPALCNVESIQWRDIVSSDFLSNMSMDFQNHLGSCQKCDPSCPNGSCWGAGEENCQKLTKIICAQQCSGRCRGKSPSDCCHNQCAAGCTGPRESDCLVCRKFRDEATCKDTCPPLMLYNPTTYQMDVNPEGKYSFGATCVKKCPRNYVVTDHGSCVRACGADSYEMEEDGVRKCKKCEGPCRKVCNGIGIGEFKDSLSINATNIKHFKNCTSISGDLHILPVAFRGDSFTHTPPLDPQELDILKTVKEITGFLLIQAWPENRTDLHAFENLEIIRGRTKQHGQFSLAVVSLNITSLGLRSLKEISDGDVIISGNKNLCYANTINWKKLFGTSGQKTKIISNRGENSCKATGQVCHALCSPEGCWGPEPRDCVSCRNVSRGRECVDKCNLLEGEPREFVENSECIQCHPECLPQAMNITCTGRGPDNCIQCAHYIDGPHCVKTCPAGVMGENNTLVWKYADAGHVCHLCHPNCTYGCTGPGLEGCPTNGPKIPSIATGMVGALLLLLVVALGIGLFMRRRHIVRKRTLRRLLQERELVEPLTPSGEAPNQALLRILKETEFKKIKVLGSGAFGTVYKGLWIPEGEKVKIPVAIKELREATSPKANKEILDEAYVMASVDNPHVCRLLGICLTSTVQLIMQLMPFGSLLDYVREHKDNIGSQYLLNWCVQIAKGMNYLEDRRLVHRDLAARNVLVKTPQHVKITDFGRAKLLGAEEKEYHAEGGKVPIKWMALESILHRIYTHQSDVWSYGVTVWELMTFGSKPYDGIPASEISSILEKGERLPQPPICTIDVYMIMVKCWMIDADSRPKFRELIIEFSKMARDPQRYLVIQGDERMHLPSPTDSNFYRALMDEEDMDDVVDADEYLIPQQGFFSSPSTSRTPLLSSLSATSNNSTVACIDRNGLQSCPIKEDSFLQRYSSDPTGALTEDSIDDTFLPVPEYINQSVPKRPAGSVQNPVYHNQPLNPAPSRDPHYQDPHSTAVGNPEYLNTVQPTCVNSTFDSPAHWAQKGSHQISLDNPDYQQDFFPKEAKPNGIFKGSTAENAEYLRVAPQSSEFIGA

SMILES	GI50 [1] [nM]	GI50 [2] [nM]	GI50 [3] [nM]	AUC(0-t) [4] [ng·h/mL]	Cmax [4] [ng/mL]	half-life [4] [h]
Cc1nn(C)cc1-c1nccc(Nc2cc3c(C(C)C)c(F)cc(N4C[C@H](N(C)S(C)(=O)=O)[C@H]4C)c3cn2)n1 [Example 127, N-((2R,3S)-1-(3-((2-(1,3-dimethyl-1H-pyrazol-4-yl)pyrimidin-4-yl)amino)-6-fluoro-5-isopropylisoquinolin-8-yl)-2-methylazetidin-3-yl)-N-methyl methanesulfonamide]	4.5	7.8				
CC(C)c1c(F)cc(N2C[C@H](CS(C)(=O)=O)[C@H]2C)c2cnc(Nc3ccnc(-c4cn(C)nc4Cl)n3)cc12 [Example 120, N-(2-(3-chloro-1-methyl-1H-pyrazol-4-yl)pyrimidin-4-yl)-6-fluoro-5-isopropyl-8-((2R,3S)-2-methyl-3-((methanesulfonyl)methyl)azetidin-1-yl)isoquinolin-3-amine]	7.1	11	14			
[2H]C([2H])([2H])c1nn(C([2H])([2H])[2H])cc1-c1nccc(Nc2cc3c(C(C)C)ccc(N4C[C@H](CS(C)(=O)=O)[C@H]4C)c3cn2)n1 [Example 4, N-(2-(1,3-bis(methyl-d3)-1H-pyrazol-4-yl)pyrimidin-4-yl)-5-isopropyl-8-((2R,3S)-2-methyl-3-((methylsulfonyl)methyl)azabut-1-yl)isoquinolin-3-amine]	7.7	20				
CC(C)c1ccc(N2C[C@H](CS(C)(=O)=O)[C@H]2C)c2cnc(Nc3ccnc(-c4cn(C[C@@H]5CCO5)nc4Cl)n3)cc12 [Example 182, N-(2-(3-chloro-1-(((S)-oxetan-2-yl)methyl)-1H-pyrazol-4-yl)pyrimidin-4-yl)-5-isopropyl-8-((2R,3S)-2-methyl-3-((methanesulfonyl)methyl)azetidin-1-yl)isoquinolin-3-amine]	4.4		10			
[2H]C([2H])([2H])n1cc(-c2nccc(Nc3cc4c(C(C)C)ccc(N5C[C@H](CS(C)(=O)=O)[C@H]5C)c4cn3)n2)c(C)n1 [Example 2, 5-isopropyl-N-(2-(3-methyl-1-(methyl-d3)-1H-pyrazol-4-yl)pyrimidin-4-yl)-8-((2R,3S)-2-methyl-3-((methylsulfonyl)methyl)azetidin-1-yl)isoquinolin-3-amine]	6.2	13				
CC(C)c1cnc(N2CC(N(C)S(C)(=O)=O)C2)c2cnc(Nc3ccnc(-c4cn(C)nc4Cl)n3)cc12 [Example 130, N-(1-(6-((2-(3-chloro-1-methyl-1H-pyrazol-4-yl)pyrimidin-4-yl)amino)-4-isopropyl-2,7-diazanaphthalen-1-yl)azetidin-3-yl)-N-methyl methanesulfonamide]	8.1	5.9				
[2H]C([2H])([2H])n1cc(-c2nccc(Nc3cc4c(C(C)C)ccc(N5C[C@H](CS(C)(=O)=O)[C@H]5C)c4cn3)n2)c(Cl)n1 [Example 6, N-(2-(3-chloro-1-(methyl-d3)-1H-pyrazol-4-yl)pyrimidin-4-yl)-5-isopropyl-8-((2R,3S)-2-methyl-3-((methylsulfonyl)methyl)azetidin-1-yl)isoquinolin-3-amine]	5.1	5.1	13			
CC(C)c1ccc(N2C[C@H](NS(C)(=O)=O)[C@H]2C)c2cnc(Nc3ccnc(-c4cn(C)nc4Cl)n3)cc12 [Example 123, N-((2R,3S)-1-(3-((2-(3-chloro-1-methyl-1H-pyrazol-4-yl)pyrimidin-4-yl)amino)-5-isopropylisoquinolin-8-yl)-2-methylazetidin-3-yl)methanesulfonamide]	3.3	6.5	13			
CC(C)c1ccc(N2CC(N(C)S(C)(=O)=O)C2)c2cnc(Nc3ccnc(-c4cn(C)nc4Cl)n3)cc12 [Example 67, N-(1-(3-((2-(3-chloro-1-methyl-1H-pyrazol-4-yl)pyrimidin-4-yl)amino)-5-isopropylisoquinolin-8-yl)azetidin-3-yl)-N-methyl methanesulfonamide]	4	3.2		2170	186	2.7
COC(C)Cn1cc(-c2nccc(Nc3cc4c(C(C)C)ccc(N5C[C@H](CS(C)(=O)=O)[C@H]5C)c4cn3)n2)c(Cl)n1 (stereo partly drawn) [Example 116A, N-(2-(3-chloro-1-(2-methoxypropyl)-1H-pyrazol-4-yl)pyrimidin-4-yl)-5-isopropyl-8-((2R,3S)-2-methyl-3-((methanesulfonyl)methyl)azetidin-1-yl)isoquinolin-3-amine]	7.6	33				
CC(C)c1ccc(N2CC(NS(C)(=O)=O)C2)c2cnc(Nc3ccnc(-c4cn(C)nc4Cl)n3)cc12 [Example 44, N-(1-(3-((2-(3-chloro-1-methyl-1H-pyrazol-4-yl)pyrimidin-4-yl)amino)-5-isopropylisoquinolin-8-yl)azetidin-3-yl)methanesulfonamide]	10	8.4				
Cc1nn(C)cc1-c1nccc(Nc2cc3c(C(C)C)ccc(N4C[C@H](CS(C)(=O)=O)[C@H]4C)c3cn2)n1 [Example 1, N-(2-(1,3-dimethyl-1H-pyrazolyl-4-yl)pyrimidin-4-yl)-5-isopropyl-8-((2R,3S)-2-methyl-3-((methanesulfonyl)methyl)azabut-1-yl)isoquinolin-3-amine]	4.5	12		1410	287	2.7
Cc1nn(C)cc1-c1nccc(Nc2cc3c(C(C)C)c(F)cc(N4C[C@H](CS(C)(=O)=O)[C@H]4C)c3cn2)n1 [Example 125, N-(2-(1,3-dimethyl-1H-pyrazol-4-yl)pyrimidin-4-yl)-6-fluoro-5-isopropyl-8-((2R,3S)-2-methyl-3-((methanesulfonyl)methyl)azetidin-1-yl)isoquinolin-3-amine]	6.8	18				
CC(C)c1ccc(N2C[C@H](CS(C)(=O)=O)[C@H]2C)c2cnc(Nc3ccnc(-c4cn(CC(O)CF)nc4Cl)n3)cc12 (stereo partly drawn) [Example 172, 1-(3-chloro-4-(4-((5-isopropyl-8-((2R,3S)-2-methyl-3-((methanesulfonyl)methyl)azetidin-1-yl)isoquinolin-3-yl)amino)pyrimidin-2-yl)-1H-pyrazol-1-yl)-3-fluoropropan-2-ol]	5	33				
[2H]C([2H])([2H])c1nn(C)cc1-c1nccc(Nc2cc3c(C(C)C)ccc(N4C[C@H](CS(C)(=O)=O)[C@H]4C)c3cn2)n1 [Example 3, 5-isopropyl-8-((2R,3S)-2-methyl-3-((methanesulfonyl)methyl)azetidin-1-yl)-N-(2-(1-methyl-3-(methyl-d3)-1H-pyrazol-4-yl)pyrimidin-4-yl)isoquinolin-3-amine]		16		2380	458	4.1
